Measurements: patent US20090093460A1, “Compositions” (AstraZeneca AB, priority 2003, published 2009)
Where two headings read alike, the source gives them in different places.

Assays:
[1] = biological target: T1, 5-HT1A receptors (Homo sapiens, UniProt P08908); assay: In vitro assay of 5HT1A agonism (GTPγ35S, CHO membranes); type: biochemical; set-up: expressed in transfected cells; host or cells: CHO
T1 sequence (P08908 1-422): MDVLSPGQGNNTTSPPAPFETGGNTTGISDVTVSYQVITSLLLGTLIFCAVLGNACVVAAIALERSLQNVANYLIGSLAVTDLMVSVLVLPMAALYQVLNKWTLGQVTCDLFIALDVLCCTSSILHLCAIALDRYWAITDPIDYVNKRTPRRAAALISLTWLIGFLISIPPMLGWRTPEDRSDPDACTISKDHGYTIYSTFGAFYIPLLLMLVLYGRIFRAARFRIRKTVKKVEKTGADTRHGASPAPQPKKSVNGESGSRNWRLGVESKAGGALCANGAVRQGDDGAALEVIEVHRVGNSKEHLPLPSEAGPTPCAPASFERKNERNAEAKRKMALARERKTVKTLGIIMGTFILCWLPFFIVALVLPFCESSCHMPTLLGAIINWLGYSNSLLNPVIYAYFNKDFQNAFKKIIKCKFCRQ
Experimental: CHO membranes (10 μg protein) expressing human 5-HT1A receptors were incubated in 100 μl of 20 mM HEPES, pH 7.4 assay buffer containing 10 mM MgCl2, 100 mM NaCl, 0.1% BSA, 20 μM GDP, 200 μg WGA-PVT beads (Amersham RPNQ0001), 200 pM GTPγ^35S (Perkin Elmer NEG-030H). 11-piperazin-1-yldibenzo[b,f][1,4]thiazepine was incubated with the above at 11 different concentrations varying from 10 μM to 170 pM in Packard OptiPlates with shaking for 1.5 hours at room temperature. […] The plates were centrifuged to settle the beads and measured in a Parkard TopCount.

[2] = PET scans of primate subjects, brain entry; type: in vivo; conditions: preliminary PET scans
Excerpt: The compound of Formula I is a dibenzothiazepine that has shown antidopaminergic activity.

[3] = test system: mice; assay: Standard apomorphine climbing mouse assay; type: in vivo; conditions: p.o.
Excerpt: The methods and procedures used can be found in Warawa et al., J. Med. Chem., 2001, 44 (3), 372-389, and are incorporated herein by reference.

[4] = biological target: T2, Adrenergic α2C (Homo sapiens, UniProt P18825); assay: Radioligand binding Adrenergic α2C
T2 sequence (P18825 1-462): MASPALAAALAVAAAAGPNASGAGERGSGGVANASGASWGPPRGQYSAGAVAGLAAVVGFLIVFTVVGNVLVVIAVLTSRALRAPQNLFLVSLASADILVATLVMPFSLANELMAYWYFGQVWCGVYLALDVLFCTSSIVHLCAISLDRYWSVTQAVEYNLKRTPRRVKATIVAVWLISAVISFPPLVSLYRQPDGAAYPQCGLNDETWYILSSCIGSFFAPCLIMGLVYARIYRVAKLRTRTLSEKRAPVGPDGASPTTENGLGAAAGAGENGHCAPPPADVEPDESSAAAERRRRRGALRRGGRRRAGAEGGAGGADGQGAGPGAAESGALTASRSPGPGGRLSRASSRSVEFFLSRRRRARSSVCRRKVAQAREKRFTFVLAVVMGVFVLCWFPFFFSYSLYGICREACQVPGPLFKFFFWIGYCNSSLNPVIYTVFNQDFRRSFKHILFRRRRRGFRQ

[5] = test system: mice; assay: Mouse forced swim test; type: in vivo; conditions: 10.0 mg/kg sc, 15 minutes prior
Experimental: Methods: Mice were placed in cylinders of water (25.0° C.±1.5° C.) for 6 minutes. The amount of immobility was quantified during the last 4 minutes of each session. The experimental observer was blind to the treatment conditions. […] Imipramine 45.0 mg/kg and citalopram 15.0 mg/kg were measured as the salt and administered ip 60 minutes prior to the behavioural session.

[6] = biological target: T3, Adrenergic α2A (Homo sapiens, UniProt P08913); assay: Radioligand binding Adrenergic α2A
T3 sequence (P08913 1-465): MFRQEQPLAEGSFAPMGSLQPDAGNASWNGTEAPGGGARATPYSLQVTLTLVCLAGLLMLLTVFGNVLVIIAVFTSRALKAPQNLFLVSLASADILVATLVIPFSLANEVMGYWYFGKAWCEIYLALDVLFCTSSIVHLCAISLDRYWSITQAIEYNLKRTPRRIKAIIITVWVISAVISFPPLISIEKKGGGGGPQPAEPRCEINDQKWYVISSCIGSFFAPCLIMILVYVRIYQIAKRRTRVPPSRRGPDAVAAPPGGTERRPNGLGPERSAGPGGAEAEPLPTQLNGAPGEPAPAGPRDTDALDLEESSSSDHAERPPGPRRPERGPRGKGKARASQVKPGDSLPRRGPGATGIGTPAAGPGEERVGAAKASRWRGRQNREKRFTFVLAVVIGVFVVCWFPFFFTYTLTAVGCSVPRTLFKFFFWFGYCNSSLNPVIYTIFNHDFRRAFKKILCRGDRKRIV

[7] = Brain exposure in rats; type: in vivo; conditions: rat; for Kp at 1 h: brain
Experimental: Brain exposure was measured in rats. For concentrations of 11-piperazin-1-yldibenzo[b,f][1,4]thiazepine in brain, rats were dosed either po or iv (n=3 per dose route). At one hour after compound administration blood and brain samples were obtained and then processed for analysis using HPLC/MS to measure concentrations of 11-piperazin-1-yldibenzo[b,f][ 1,4]thiazepine.

Which EC50 ([1]; GTPγ35S, CHO membranes) does the source give for `c1ccc2c(c1)N=C(N1CCNCC1)c1ccccc1S2` [11-piperazin-1-yldibenzo[b,f][1,4]thiazepine] here?
Its EC50 is 310 nM.

And the Emax ([1]; read-out: maximum efficacy)?
The Emax was 66%.

And the “brain entry by PET” value [2]?
Its value is “reaches the brain”.

What about the “in vivo antipsychotic activity” value [3] of the same compound?
Its value is “not shown to be efficacious”.

And the IC50 [4]?
Its IC50 is 5640 ± 1010 nM.

What about the n [4] of the same compound?
The n was 1.1 ± 0.079.

And the inhibition at 10 µM ([4]; 10 μM)?
Its inhibition at 10 µM is 58%.

What about the Ki ([4]; read-out: ki) of the same compound?
The Ki was 820 ± 146 nM.

And the Ki ([4]; α2C, read-out: Affinity)?
The Ki was 820 nM.

And the “antidepressant effect (immobility)” value [5]?
The value was “antidepressant effects in this assay comparable to imipramine”.

What about the IC50 [6] of the same compound?
The IC50 was 2820 ± 275 nM.

And the Ki [6]?
Its Ki is 1060 ± 103 nM.

What about the n [6] of the same compound?
The n was 0.969 ± 0.012.

And the inhibition at 3 µM ([6]; 3 μM)?
Its inhibition at 3 µM is 51%.

And the Kp at 1 h ([7]; 30 umol/kg, one hour after 30 μmol/kg po, read-out: brain/plasma exposure ratio)?
Its Kp at 1 h is 3.4.

And the Kp at 1 h ([7]; after iv dosing, read-out: brain:plasma concentration ratio)?
The Kp at 1 h was 4.6.

What about the concentration at 1 h ([7]; plasma, 30 μmol/kg, heading: average concentration in plasma, one hour after 30 μmol/kg po) of the same compound?
The concentration at 1 h was 658 nM.
